The source of these data is US12577417B2, “Active energy ray-curable aqueous ink, recording method and recording apparatus” (CANON KABUSHIKI KAISHA, priority 2021, dated 2026).

The nature of this data set: Water solubility of bifunctional polymerizable monomer. The settings on record: mixed with ion exchanged water at 25° C.; concentration at which no insoluble matter is found by visual observation. The data set is classed as physicochemical. As for the experimental part:
When a bifunctional polymerizable monomer is mixed with ion exchanged water at 25° C. and the concentration at which no insoluble matter is found as a result of visual observation of the resulting mixture is shown as water solubility. Higher water solubility is preferred and the evaluation criteria is as follows.
A: no insoluble matter is found at 20% by mass
B: no insoluble matter is found at 5% by mass
C: no insoluble matter is found at 1% by mass
D: an insoluble matter is found at 1% by mass
With `C=CC(=O)NCCCCCC(=O)NCCOCCOCCNC(=O)CCCCCNC(=O)C=C` [Curable substance 2], the Water solubility result is “C (no insoluble matter is found at 1% by mass)”.

As for `C=CC(=O)NCCCC(=O)NCCCNC(=O)CCCNC(=O)C=C` [Curable substance 4], the Water solubility result was “B (no insoluble matter is found at 5% by mass)”.

Consider `C=CC(=O)NCCCCCC(=O)NCCNC(=O)CCCCCNC(=O)C=C` [Curable substance 12], for which the Water solubility entry is given as “C (no insoluble matter is found at 1% by mass)”.

Consider `C=CC(=O)NCCOCCOCCNC(=O)C=C` [Comparative compound 2, reference compound], for which the Water solubility result is reported as “A (no insoluble matter is found at 20% by mass)”.

With `C=CC(=O)NCCC(=O)NCCCNC(=O)CCNC(=O)C=C` [Curable substance 3], the Water solubility entry was “B (no insoluble matter is found at 5% by mass)”.

Turning to `C=CC(=O)NCCCOCCOCCOCCCN(O)C(=O)C=C` [Comparative compound 1, reference compound], the Water solubility entry is “A (no insoluble matter is found at 20% by mass)”.

In the case of `C=CC(=O)NCCC(=O)NCCOCCOCCNC(=O)CCNC(=O)C=C` [Curable substance 1], the Water solubility result is “A (no insoluble matter is found at 20% by mass)”.
